The text below walks through data of patent US20110015181A1, “ALKYLAMINOPYRIDINE DERIVATIVE” (priority 2008, published 2011).

The target of one data set is T1, human NPY Y1 receptor (Homo sapiens, UniProt P25929).
T1 construct: expressed in transfected cells; host or cells: CHO-K1 NFAT β-Lactamase (Aurora)
T1 sequence (P25929 1-384): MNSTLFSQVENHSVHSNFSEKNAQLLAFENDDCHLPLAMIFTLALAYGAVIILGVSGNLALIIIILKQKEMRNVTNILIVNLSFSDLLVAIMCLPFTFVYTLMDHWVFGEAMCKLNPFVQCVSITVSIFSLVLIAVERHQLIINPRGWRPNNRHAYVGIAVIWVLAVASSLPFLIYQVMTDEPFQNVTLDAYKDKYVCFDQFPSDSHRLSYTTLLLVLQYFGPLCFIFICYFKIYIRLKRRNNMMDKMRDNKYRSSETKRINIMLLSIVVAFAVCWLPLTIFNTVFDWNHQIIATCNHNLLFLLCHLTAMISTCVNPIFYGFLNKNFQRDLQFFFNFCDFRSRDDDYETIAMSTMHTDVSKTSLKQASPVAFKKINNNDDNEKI
The experiment in a line: NPY binding inhibition test ([125I] peptide YY binding to membranes of NPY Y1 receptor expression cells). Particulars: membrane of CHO-K1 cells expressing human NPY Y1 receptor, 25° C., 2 hours; read-out: IC50 against specific [125I] peptide YY binding. As for the experimental part: A cDNA sequence encoding a human NPY Y1 receptor [Accession No. L07615] was cloned into expression vectors pEF1x (made by Invitrogen Inc.). The obtained expression vectors were transfected to host cells CHO-K1 NFAT β-Lactamase (Aurora) by cationic lipid method [see Proceedings of the National Academy of Sciences of the United States of America, 84: 7413 (1987)] to give NPY Y1 receptor expression cells.
A membrane sample prepared from the cells which expressed the NPY Yl receptor was incubated together with a test compound and [^125I] peptide YY (manufactured by Amersham) (20,000 cpm) in an assay buffer (HBSS buffer (pH 7.4) containing 20 mM HEPES, 0.5% BSA, 1 mM phenylmethylsulfonylfluoride and 0.1% bacitracin) at 25° C. for 2 hours, then filtered through a glass filter GF/C, and washed with 20 mM HEPES buffer (pH 7.4), followed by measuring the radioactivity of the cake on the glass filter with γ counter. Nonspecific binding was measured in the presence of 1 μM peptide YY and a 50% Inhibitory Concentration (IC50) of the test compound against specific [^125I] peptide YY binding was determined [Endocrinology, 131: 2090 (1992)].

The target of a further data set is human ERG (hERG) (Homo sapiens, UniProt Q12809). The experiment in a line: Affinity for human ERG (hERG). The class given is binding. As for the experimental part: In addition, the affinities of compounds according to the present invention and compounds described in Patent Document 7 described above for human ERG (hERG) were examined. This examination method was carried out according to the method described in documents (for example, Japanese Unexamined Patent Application Publication No. 2004-512268).
For orientation: Block of hERG is tested as a sign of cardiac risk.

Where [1] appears, read: compounds according to the present invention.
[2] abbreviates: compounds described in Patent Document 7 (WO 97/34873).

pIC50: −log10 of the molar value.

Sequence of human ERG (hERG) (Q12809 whole entry): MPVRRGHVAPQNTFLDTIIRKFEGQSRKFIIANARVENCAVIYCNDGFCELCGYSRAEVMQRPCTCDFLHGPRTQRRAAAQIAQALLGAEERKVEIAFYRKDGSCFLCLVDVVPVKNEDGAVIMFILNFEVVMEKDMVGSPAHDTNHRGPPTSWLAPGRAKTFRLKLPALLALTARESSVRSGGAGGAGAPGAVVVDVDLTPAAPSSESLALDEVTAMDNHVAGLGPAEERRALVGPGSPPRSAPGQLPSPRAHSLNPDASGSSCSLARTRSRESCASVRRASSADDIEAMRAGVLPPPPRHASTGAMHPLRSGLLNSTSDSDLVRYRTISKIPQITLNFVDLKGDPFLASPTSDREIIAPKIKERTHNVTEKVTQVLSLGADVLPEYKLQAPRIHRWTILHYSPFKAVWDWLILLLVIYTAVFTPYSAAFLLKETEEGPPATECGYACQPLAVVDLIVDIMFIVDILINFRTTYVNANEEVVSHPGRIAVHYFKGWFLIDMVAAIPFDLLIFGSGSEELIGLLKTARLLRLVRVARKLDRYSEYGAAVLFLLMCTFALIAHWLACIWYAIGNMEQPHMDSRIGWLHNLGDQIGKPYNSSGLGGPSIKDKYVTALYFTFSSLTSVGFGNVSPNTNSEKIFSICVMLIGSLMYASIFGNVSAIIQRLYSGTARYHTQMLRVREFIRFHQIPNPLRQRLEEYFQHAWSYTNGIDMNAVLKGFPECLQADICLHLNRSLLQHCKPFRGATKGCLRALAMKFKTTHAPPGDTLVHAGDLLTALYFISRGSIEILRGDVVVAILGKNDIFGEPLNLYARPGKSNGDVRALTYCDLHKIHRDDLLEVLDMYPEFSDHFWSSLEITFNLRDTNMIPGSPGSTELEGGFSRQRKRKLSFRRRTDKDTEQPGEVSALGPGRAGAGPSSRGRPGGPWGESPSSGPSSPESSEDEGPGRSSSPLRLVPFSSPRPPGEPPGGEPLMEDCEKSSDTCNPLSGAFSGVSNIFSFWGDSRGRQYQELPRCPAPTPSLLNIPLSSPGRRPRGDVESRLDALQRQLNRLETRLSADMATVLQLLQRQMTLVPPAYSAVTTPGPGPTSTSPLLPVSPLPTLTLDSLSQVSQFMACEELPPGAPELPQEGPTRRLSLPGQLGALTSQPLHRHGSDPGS

Broadly, the pIC50 is the IC50 on a negative log10 scale, so that one unit is a factor of ten. Take `O=S1(=O)CCN(c2cc(CSc3nc4c(o3)CCCC4)nc(NCC(F)(F)F)c2)CC1` [Example 12]: the negative logarithm of the IC50 (pIC50) at human NPY Y1 receptor was 7.56. Moreover, the “Activity for Human ERG” value on human ERG (hERG) (setting [1]) amounted to 14 µM. Take `CCc1nnc(SCc2cc(N3CCOCC3)cc(NCc3cccc(O)c3)n2)s1` [reference compound]: on human ERG (hERG) (setting [2]), the “Activity for Human ERG” value stood at 0.16 µM. Turning to `CCc1nnc(SCc2cc(N3CCOCC3)cc(NCc3cccc(NC(C)=O)c3)n2)s1` [reference compound], on human ERG (hERG) (setting [2]), the “Activity for Human ERG” value amounted to 0.57 µM.

Regarding `COC(=O)CNc1cc(N2C3CCC2COC3)cc(CSc2nc(C)c(C)s2)n1` [Example 38, {[6-{[(4,5-dimethyl-1,3-thiazol-2-yl)thio]methyl}-4-(3-oxa-8-azabicyclo[3,2,1]octo-8-yl)-2-pyridinyl]amino}acetic acid methyl ester], at human NPY Y1 receptor, the negative-log IC50 (pIC50) was 8.55. Further, the “Activity for Human ERG” value at human ERG (hERG) (setting [1]) was found to be 7.4 µM. In the case of `Cc1nc(SCc2cc(N3C4CCC3COC4)cc(NCC#N)n2)sc1C` [Example 1], the pIC50 at human NPY Y1 receptor is 7.80. Further, the “Activity for Human ERG” value on human ERG (hERG) (setting [1]) came to 33 µM. As for `CCc1nnc(SCc2cc(N3CCOCC3)cc(NCc3cccc(OC)c3)n2)s1` [reference compound], the “Activity for Human ERG” value at human ERG (hERG) (setting [2]) is 0.028 µM. For the compound `Cc1cc(CCc2cc(N3CCC(F)(F)CC3)cc(NCC#N)n2)nn1C` [Example 32, ({4-(4,4-difluoro-1-piperidinyl)-6-[2-(1,5-dimethyl-1H-pyrazol-3-yl)ethyl]-2-pyridinyl}amino)acetonitrile], on human NPY Y1 receptor, the pIC50 is 8.00. For the same compound, at human ERG (hERG) (setting [1]), the “Activity for Human ERG” value stood at 11 µM. `Cc1nc(SCc2cc(N3CCC(F)(F)CC3)cc(NCC(F)(F)F)n2)nn1C` [Example 5, 4-(4,4-difluoro-1-piperidinyl)-6-{[(1,5-dimethyl-1H-1,2,4-triazol-3-yl)thio]methyl}-N-(2,2,2-trifluoroethyl)-2-pyridinamine]: the negative logarithm of the IC50 (pIC50) at human NPY Y1 receptor is 7.77. For the same compound, on human ERG (hERG) (setting [1]), the “Activity for Human ERG” value is 16 µM. The like results for `Cc1nc(SCc2cc(N3CCSCC3)cc(NCC#N)n2)n(C)c1C` [Example 34, [(4-(4-thiomorpholinyl)-6-{[(1,4,5-trimethyl-1H-imidazol-2-yl)thio]methyl}-2-pyridinyl)amino]acetonitrile] were, in that order, 8.19 and 7.3 µM. The corresponding values for `Cc1cc(SCc2cc(N3CCC(F)(F)CC3)cc(NCC(F)(F)F)n2)nn1C` [Example 9, 4-(4,4-difluoro-1-piperidinyl)-6-{[(1,5-dimethyl-1H-pyrazol-3-yl)thio]methyl}-N-(2,2,2-trifluoroethyl)-2-pyridinamine] are 8.66 and 5.3 µM. The like results for `Cc1nc(SCc2cc(N3CCCCCC3)cc(NCC(F)(F)F)n2)cn1C` [Example 13, 4-(1-azepanyl)-6-{[(1,2-dimethyl-1H-imidazol-4-yl)thio]methyl}-N-(2,2,2-trifluoroethyl)-2-pyridinamine] were, in that order, 7.36 and 8.2 µM. Take `Cc1nc(SCc2cc(N3CCC(F)(F)CC3)cc(NCCS(C)(=O)=O)n2)oc1C` [Example 48, 4-(4,4-difluoro-1-piperidinyl)-6-{[(4,5-dimethyl-1,3-oxazol-2-yl)thio]methyl}-N-[2-(methylsulfonyl)ethyl]-2-pyridinamine]: the pIC50 at human NPY Y1 receptor is 7.80. Further, the “Activity for Human ERG” value on human ERG (hERG) (setting [1]) is 5.9 µM.

With `CCc1oc(CC(O)c2cc(N3C4CCC3COC4)cc(NCC(F)(F)F)n2)nc1C` (single isomer, unassigned) [Example 21], the pIC50 on human NPY Y1 receptor is 7.59. Besides, the “Activity for Human ERG” value on human ERG (hERG) (setting [1]) came out at 14 µM.
